# Measurements from US20260285850A1, “SUBSTITUTED OXAZOLIDINONES AND IMIDAZOLINONES AS HERBICIDES” (FMC CORPORATION, priority 2023, published 2026).
# Key:
# Assay type in all cases: in vivo
# [1] = test system: oat, wild (wild oat, Avena fatua); experiment: Test A postemergence application, visual injury rating 0-100
# Method in brief: (§1)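 Plants were grown in a loam soil-sand blend and treated with test chemical in a non-phytotoxic solvent mixture containing surfactant, either sprayed on soil preemergence or applied postemergence to 2-10 cm plants. After 10 days in a greenhouse, injury was scored visually against untreated controls, 0 meaning no effect and 100 complete control.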
# soybean (Glycine max) [2] = experiment: as above
# Method in brief: as §1
# [3] = test system: wheat (Triticum aestivum); experiment: as above
# Method in brief: as §1
# [4] = test system: galium (catchweed bedstraw, Galium aparine); experiment: as above
# Method in brief: as §1
# [5] = test system: blackgrass (Alopecurus myosuroides); experiment: as above
# Method in brief: as §1
# [6] = test system: horseweed (Erigeron canadensis); experiment: as above
# Method in brief: as §1
# corn (Zea mays) [7] = experiment: as above
# Method in brief: as §1
# [8] = test system: ryegrass, Italian (italian ryegrass, Lolium multiflorum); experiment: as above
# Method in brief: as §1
# [9] = test system: green foxtail (Setaria viridis); experiment: as above
# Method in brief: as §1
# kochia (Bassia scoparia) [10] = experiment: as above
# Method in brief: as §1
# [11] = test system: ragweed (common ragweed, Ambrosia artemisiifolia); experiment: as above
# Method in brief: as §1
# [12] = test system: barnyardgrass (Echinochloa crus-galli); experiment: as above
# Method in brief: as §1
# [13] = test system: palmer (palmer amaranth, palmer pigweed, Amaranthus palmeri); experiment: as above
# Method in brief: as §1
# [14] = test system: ducksalad (Heteranthera limosa); experiment: Test B flooded paddy test, visual plant response rating 0-100; conditions: 250 g ai/ha, Flood, applied to paddy water, evaluated after 13 days
# Method in brief: (§2)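 Plants were grown to the 2-leaf stage, then pots were flooded to 3 cm above the soil and compound was applied directly to the paddy water, with that depth kept throughout.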
# [15] = test system: barnyardgrass (Echinochloa crusgalli); experiment: as above; conditions: 250 g ai/ha, Flood, applied to paddy water, evaluated after 13 days
# Method in brief: as §2
# rice (Oryza sativa) = experiment: as above; conditions: 250 g ai/ha, Flood, applied to paddy water, evaluated after 13 days
# Method in brief: as §2
# [16] = test system: sedge, umbrella (small-flower umbrella sedge, Cyperus difformis); experiment: as above; conditions: 250 g ai/ha, Flood, applied to paddy water, evaluated after 13 days
# Method in brief: as §2
# [17] = test system: oat, wild (wild oat, Avena fatua); experiment: Test A preemergence soil spray, visual injury rating 0-100; conditions: 10 days
# Method in brief: as §1
# soybean (Glycine max) [18] = experiment: as above; conditions: 10 days
# Method in brief: as §1
# [19] = test system: wheat (Triticum aestivum); experiment: as above; conditions: 10 days
# Method in brief: as §1
# [20] = test system: blackgrass (Alopecurus myosuroides); experiment: as above; conditions: 10 days
# Method in brief: as §1
# corn (Zea mays) [21] = experiment: as above; conditions: 10 days
# Method in brief: as §1
# [22] = test system: ryegrass, Italian (italian ryegrass, Lolium multiflorum); experiment: as above; conditions: 10 days
# Method in brief: as §1
# [23] = test system: green foxtail (Setaria viridis); experiment: as above; conditions: 10 days
# Method in brief: as §1
# kochia (Bassia scoparia) [24] = experiment: as above; conditions: 10 days
# Method in brief: as §1
# [25] = test system: ragweed (common ragweed, Ambrosia artemisiifolia); experiment: as above; conditions: 10 days
# Method in brief: as §1
# [26] = test system: barnyardgrass (Echinochloa crus-galli); experiment: as above; conditions: 10 days
# Method in brief: as §1
# [27] = test system: palmer (palmer amaranth, palmer pigweed, Amaranthus palmeri); experiment: as above; conditions: 10 days
# Method in brief: as §1
# [28] = 62 g ai/ha, postemergence, 10 days, 0 = no effect, 100 = complete control
# [29] = Postemergence, 16 g ai/ha, greenhouse 10 days, 0 no effect, 100 complete control
# [30] = 62 g ai/ha, 0 = no effect, 100 = complete control
compound,measurement,setting,value
COC(=O)C1C=CC(NC(=O)C2(C)CN(c3cc(F)cc(F)c3)C(=O)O2)C1 (stereo not shown) [Compound 89],"Oat, Wild plant response rating (0-100)",[1]; [28],90
same,"Oat, Wild plant response rating (0 to 100 scale)",[1]; [29],90
same,Soybean plant response rating (0-100),soybean (Glycine max) [2]; [28],50
same,Soybean plant response rating (0 to 100 scale),soybean (Glycine max) [2]; [29],50
same,Wheat plant response rating (0-100),[3]; [28],90
same,Wheat plant response rating (0 to 100 scale),[3]; [29],90
same,Galium plant response rating (0-100),[4]; [28],100
same,Galium plant response rating (0 to 100 scale),[4]; [29],100
same,Blackgrass plant response rating (0-100),[5]; [28],90
same,Blackgrass plant response rating (0 to 100 scale),[5]; [29],90
same,Horseweed plant response rating (0-100),[6]; [28],80
same,Horseweed plant response rating (0 to 100 scale),[6]; [29],20
same,Corn plant response rating (0-100),corn (Zea mays) [7]; [28],100
same,Corn plant response rating (0 to 100 scale),corn (Zea mays) [7]; [29],90
same,"Ryegrass, Italian plant response rating (0-100)",[8]; [28],90
same,"Ryegrass, Italian plant response rating (0 to 100 scale)",[8]; [29],90
same,"Foxtail, Green plant response rating (0-100)",[9]; [28],90
same,"Foxtail, Green plant response rating (0 to 100 scale)",[9]; [29],60
same,Kochia plant response rating (0-100),kochia (Bassia scoparia) [10]; [28],90
same,Kochia plant response rating (0 to 100 scale),kochia (Bassia scoparia) [10]; [29],80
same,Ragweed plant response rating (0-100),[11]; [28],70
same,Ragweed plant response rating (0 to 100 scale),[11]; [29],50
same,Barnyardgrass plant response rating (0-100),[12]; [28],100
same,Barnyardgrass plant response rating (0 to 100 scale),[12]; [29],90
same,"Pigweed, Palmer plant response rating (0-100)",[13]; [28],90
same,"Pigweed, Palmer plant response rating (0 to 100 scale)",[13]; [29],70
same,"Plant response rating, Ducksalad (0 to 100 scale, 0 is no effect and 100 is complete control)",[14],70
same,"Plant response rating, Barnyardgrass (0 to 100 scale, 0 is no effect and 100 is complete control)",[15],95
same,"Plant response rating, Rice (0 to 100 scale, 0 is no effect and 100 is complete control)",rice (Oryza sativa),25
same,"Plant response rating, Sedge, Umbrella (0 to 100 scale, 0 is no effect and 100 is complete control)",[16],95
same,"Oat, Wild plant response rating","[17]; 16 g ai/ha, 0 to 100 scale",80
same,"Oat, Wild plant response rating (0-100)",[17]; [30],90
same,Soybean plant response rating,"soybean (Glycine max) [18]; 16 g ai/ha, 0 to 100 scale",40
same,Soybean plant response rating (0-100),soybean (Glycine max) [18]; [30],80
same,Wheat plant response rating,"[19]; 16 g ai/ha, 0 to 100 scale",90
same,Wheat plant response rating (0-100),[19]; [30],90
same,Blackgrass plant response rating,"[20]; 16 g ai/ha, 0 to 100 scale",30
same,Blackgrass plant response rating (0-100),[20]; [30],70
same,Corn plant response rating,"corn (Zea mays) [21]; 16 g ai/ha, 0 to 100 scale",30
same,Corn plant response rating (0-100),corn (Zea mays) [21]; [30],100
same,"Ryegrass, Italian plant response rating","[22]; 16 g ai/ha, 0 to 100 scale",80
same,"Ryegrass, Italian plant response rating (0-100)",[22]; [30],90
same,"Foxtail, Green plant response rating","[23]; 16 g ai/ha, 0 to 100 scale",10
same,"Foxtail, Green plant response rating (0-100)",[23]; [30],100
same,Kochia plant response rating,"kochia (Bassia scoparia) [24]; 16 g ai/ha, 0 to 100 scale",90
same,Kochia plant response rating (0-100),kochia (Bassia scoparia) [24]; [30],100
same,Ragweed plant response rating,"[25]; 16 g ai/ha, 0 to 100 scale",0
same,Ragweed plant response rating (0-100),[25]; [30],30
same,Barnyardgrass plant response rating,"[26]; 16 g ai/ha, 0 to 100 scale",70
same,Barnyardgrass plant response rating (0-100),[26]; [30],100
same,"Pigweed, Palmer plant response rating","[27]; 16 g ai/ha, 0 to 100 scale",80
same,"Pigweed, Palmer plant response rating (0-100)",[27]; [30],100
